Where two headings read alike, the source gives them in different places.
How the values were obtained:
[1] = system: polynucleotide phophorylase; conditions: cited from earlier work
[2] = system: other cellular DNA polymerases; conditions: 100 mM ATP added (Mertelsmann); cited from earlier work
[3] = system: TdT; conditions: cited from earlier work
[4] = system: Terminal Deoxynucleotidyl Transferase (TdT); assay: Incorporation of tritium labeled nucleotide into acid insoluble polydeoxynucleotides by purified TdT; assay type: biochemical; conditions: purified TdT enzyme sample, 90 minute incubation period, tritium labeled substrate
Protocol: (§1) To illustrate that suitable modified deoxynucleoside triphosphates and/or single stranded oligodeoxynucleotides which have impaired basing pairing abilities, as described above, are specific to TdT, tritium labeled ethenodeoxyadenosine triphosphate (etheno dATP) and tritium labeled deoxyadenosine triphosphate (dATP) were appropriately incubated with a purified TdT enzyme sample and with a purified E. coli DNA polymerase I sample.

[5] = molecular target: E. coli DNA polymerase I (Escherichia coli, UniProt P00582); assay: Incorporation of tritium labeled nucleotide into acid insoluble polydeoxynucleotide by purified E. coli DNA polymerase I; assay type: biochemical; conditions: purified E. coli DNA polymerase I sample, 90 minute incubation period, tritium labeled substrate
Protocol: as §1

E. coli DNA polymerase I, sequence (P00582 whole entry): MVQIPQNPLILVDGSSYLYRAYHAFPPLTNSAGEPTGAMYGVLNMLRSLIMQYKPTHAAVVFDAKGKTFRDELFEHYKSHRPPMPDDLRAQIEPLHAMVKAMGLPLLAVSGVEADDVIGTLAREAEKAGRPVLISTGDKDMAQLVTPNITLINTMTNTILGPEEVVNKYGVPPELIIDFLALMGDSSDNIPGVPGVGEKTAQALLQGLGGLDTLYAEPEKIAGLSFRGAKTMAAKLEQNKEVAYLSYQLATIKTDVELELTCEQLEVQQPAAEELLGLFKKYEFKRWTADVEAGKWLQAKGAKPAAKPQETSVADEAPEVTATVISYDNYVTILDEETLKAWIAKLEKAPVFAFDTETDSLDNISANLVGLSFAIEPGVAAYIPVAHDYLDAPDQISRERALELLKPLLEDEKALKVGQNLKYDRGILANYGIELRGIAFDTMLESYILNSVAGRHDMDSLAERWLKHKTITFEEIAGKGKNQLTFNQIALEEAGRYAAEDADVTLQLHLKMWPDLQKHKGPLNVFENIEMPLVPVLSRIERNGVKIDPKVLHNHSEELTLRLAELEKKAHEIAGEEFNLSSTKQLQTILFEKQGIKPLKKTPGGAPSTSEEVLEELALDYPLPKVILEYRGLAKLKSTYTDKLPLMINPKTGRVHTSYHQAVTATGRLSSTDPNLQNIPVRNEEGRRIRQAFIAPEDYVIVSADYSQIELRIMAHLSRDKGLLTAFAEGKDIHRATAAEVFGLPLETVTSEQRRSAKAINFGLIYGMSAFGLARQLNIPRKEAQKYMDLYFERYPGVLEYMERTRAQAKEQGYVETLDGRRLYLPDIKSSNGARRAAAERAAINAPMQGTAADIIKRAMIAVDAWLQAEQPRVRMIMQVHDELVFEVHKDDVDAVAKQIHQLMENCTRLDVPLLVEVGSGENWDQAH

| Molecule | incorporation into acid insoluble polydeoxynucleotides [4] | incorporation into acid insoluble polydeoxynucleotide [5] | further results |
| --- | --- | --- | --- |
| 6-dimethylaminoadenine | – | – | substrate for template independent RNA polymerase, polynucleotide phophorylase [1]: remains a substrate |
| Nc1ncnc2c1ncn2[C@@H]1O[C@H](COP(=O)(O)OP(=O)(O)OP(=O)(O)O)[C@@H](O)[C@H]1O [ATP, adenosine triphosphate] | – | – | effect on other cellular DNA polymerases [2]: without affecting other cellular DNA polymerases; inhibition of TdT activity ([3]; 100 mM ATP added (Mertelsmann)): specifically inhibits TdT |
| CCN1C(=O)C=CC1=O [N-ethylmaleimide] | – | – | inhibition of TdT activity ([3]; 10% ethanol and 10 mM N-ethylmaleimide added (Coleman)): completely inhibit TdT activity |
| Nc1ncnc2c1ncn2[C@H]1C[C@H](O)[C@@H](COP(=O)(O)OP(=O)(O)OP(=O)(O)O)O1 [dATP, deoxyadenosine triphosphate] | progressive incorporation | normally and appreciably incorporated | – |
| O=P(O)(O)OP(=O)(O)OP(=O)(O)OC[C@H]1O[C@@H](n2cnc3c2ncn2ccnc32)C[C@@H]1O [etheno-dATP, 1,N^6 -ethenodeoxy-adenosine triphophate] | progressive incorporation | no detectable incorporation | – |

From patent US4307189A, “Method for the quantitative determination of terminal deoxynucleotidyl transferase in biological samples” (priority 1980, dated 1981)
